Activity calls are given as the source filed them. The calls are words filed in the database; no cut-off is given here.
Assays:
[1] = Cmax in Sprague-Dawley rat at 2 mg/kg, iv measured upto 24 hrs by LC-MS/MS analysis; type: ADME, organism-based; details: in vivo
[2] = Half life in Sprague-Dawley rat at 10 mg/kg, po measured upto 24 hrs by LC-MS/MS analysis; type: ADME, organism-based; details: in vivo
[3] = Clearance in Sprague-Dawley rat at 2 mg/kg, iv measured upto 24 hrs by LC-MS/MS analysis; type: ADME, organism-based; details: in vivo
[4] = test system: HepG2; assay: Antiproliferative activity against human HepG2 cells assessed as inhibition of cell growth incubated for 24 hrs by SRB assay; type: functional, cell-based; details: HepG2, 24 h
[5] = target: T1, Histone-arginine methyltransferase CARM1 (Homo sapiens, UniProt Q86X55); assay: Inhibition of PRMT4 (unknown origin)
T1 sequence (Q86X55 whole entry): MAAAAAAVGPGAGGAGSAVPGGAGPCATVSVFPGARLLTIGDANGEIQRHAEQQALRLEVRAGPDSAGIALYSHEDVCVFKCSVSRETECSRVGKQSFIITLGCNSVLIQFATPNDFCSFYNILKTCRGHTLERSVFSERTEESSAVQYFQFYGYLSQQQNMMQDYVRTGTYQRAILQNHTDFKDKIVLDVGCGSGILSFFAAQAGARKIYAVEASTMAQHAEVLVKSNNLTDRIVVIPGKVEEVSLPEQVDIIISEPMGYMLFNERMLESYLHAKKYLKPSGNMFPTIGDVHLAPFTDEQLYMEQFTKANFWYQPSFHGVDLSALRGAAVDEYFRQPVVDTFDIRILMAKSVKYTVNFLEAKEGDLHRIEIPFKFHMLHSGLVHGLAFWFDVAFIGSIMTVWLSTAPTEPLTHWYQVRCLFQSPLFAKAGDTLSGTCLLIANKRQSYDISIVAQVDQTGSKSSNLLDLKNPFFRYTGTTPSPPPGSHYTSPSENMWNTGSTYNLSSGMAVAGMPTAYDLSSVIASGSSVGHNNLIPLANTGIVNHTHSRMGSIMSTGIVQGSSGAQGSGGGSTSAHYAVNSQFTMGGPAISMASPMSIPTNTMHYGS

[6] = target: Protein arginine N-methyltransferase 5 (Homo sapiens, UniProt O14744); assay: Inhibition of PRMT5 (unknown origin)
[7] = Cmax in Sprague-Dawley rat at 10 mg/kg, po measured upto 24 hrs by LC-MS/MS analysis; type: ADME, organism-based; details: in vivo
[8] = test system: A549; assay: Antiproliferative activity against human A549 cells assessed as reduction in cell viability at 25 uM incubated for 24 hrs by SRB assay; type: functional, cell-based
[9] = Half life in Sprague-Dawley rat at 2 mg/kg, iv measured upto 24 hrs by LC-MS/MS analysis; type: ADME, organism-based; details: in vivo
[10] = target: Protein arginine N-methyltransferase 1 (Homo sapiens, UniProt Q99873); assay: Inhibition of PRMT1 (unknown origin)
[11] = Metabolic stability in rat liver microsome assessed as half life measured upto 4 hrs in presence of NADPH by LC-MS/MS analysis; type: ADME; details: liver microsomes
[12] = Metabolic stability in human liver microsome assessed as half life measured upto 4 hrs in presence of NADPH by LC-MS/MS analysis; type: ADME; details: liver microsomes
[13] = test system: A549; assay: Induction of apoptosis in human A549 cells at 2.5 to 50 uM incubated for 24 hrs by Hoechst 33342 staining based analysis; type: functional; details: dose 2.5-50 µM
[14] = test system: A549; assay: Induction of apoptosis in human A549 cells assessed as nuclear fragmentation incubated for 24 hrs by Hoechst 33342 staining based analysis; type: functional, cell-based; details: dose 12.5-50 µM
[15] = test system: A549; assay: Antiproliferative activity against human A549 cells assessed as inhibition of cell growth incubated for 24 hrs by SRB assay; type: functional, cell-based; details: A549, 24 h
[16] = test system: A549; assay: Induction of apoptosis in human A549 cells transfected in hnRNP E1 siRNA assessed as reduction in cell number incubated for 24 hrs by Hoechst 33258 staining based analysis; type: functional
[17] = Volume of distribution in Sprague-Dawley rat at 2 mg/kg, iv measured upto 24 hrs by LC-MS/MS analysis; type: ADME, organism-based; details: in vivo
[18] = test system: A549; assay: Upregulation of hnRNP E1 gene expression in human A549 cells at 12.5 to 50 uM incubated for 24 hrs by Western blot analysis; type: functional, cell-based; details: dose 12.5-50 µM
[19] = Tmax in Sprague-Dawley rat at 10 mg/kg, po measured upto 24 hrs by LC-MS/MS analysis; type: ADME, organism-based; details: in vivo
[20] = AUC (0 to infinity) in Sprague-Dawley rat at 10 mg/kg, po measured upto 24 hrs by LC-MS/MS analysis; type: ADME, organism-based; details: in vivo
[21] = test system: A549; assay: Inhibition of cell migration human A549 cells transfected with hnRNP E1 siRNA incubated upto 12 hrs by wound healing assay; type: functional, cell-based
[22] = Antiproliferative activity against human L02 cells assessed as inhibition of cell growth incubated for 24 hrs by SRB assay; type: toxicity, cell-based
[23] = AUC (0 to infinity) in Sprague-Dawley rat at 2 mg/kg, iv measured upto 24 hrs by LC-MS/MS analysis; type: ADME, organism-based; details: in vivo
[24] = test system: MDA-MB-231; assay: Antiproliferative activity against human MDA-MB-231 cells assessed as inhibition of cell growth incubated for 24 hrs by SRB assay; type: functional, cell-based; details: MDA-MB-231, 24 h
[25] = AUC (0 to t) in Sprague-Dawley rat at 10 mg/kg, po measured upto 24 hrs by LC-MS/MS analysis; type: ADME, organism-based; details: in vivo
[26] = Bioavailability in Sprague-Dawley rat at 2 mg/kg, iv measured upto 24 hrs by LC-MS/MS analysis; type: ADME, organism-based; details: in vivo
[27] = AUC (0 to t) in Sprague-Dawley rat at 2 mg/kg, iv measured upto 24 hrs by LC-MS/MS analysis; type: ADME, organism-based; details: in vivo
[28] = test system: A549; assay: Anticancer activity against human A549 cells assessed as decrease in cell number incubated for 24 hrs by SRB assay; type: functional, cell-based; details: dose 12.5-50 µM
[29] = test system: MCF7; assay: Antiproliferative activity against human MCF7 cells assessed as inhibition of cell growth incubated for 24 hrs by SRB assay; type: functional, cell-based; details: MCF7, 24 h
[30] = Oral bioavailability in Sprague-Dawley rat at 10 mg/kg measured upto 24 hrs by LC-MS/MS analysis; type: ADME, organism-based; details: in vivo
[31] = test system: A549; assay: Inhibition of cell migration human A549 cells assessed as decrease in migration distance at 12.5 to 25 uM incubated upto 12 hrs by wound healing assay; type: functional, cell-based; details: dose 12.5-25 µM

Sequence of Protein arginine N-methyltransferase 5 (O14744 whole entry): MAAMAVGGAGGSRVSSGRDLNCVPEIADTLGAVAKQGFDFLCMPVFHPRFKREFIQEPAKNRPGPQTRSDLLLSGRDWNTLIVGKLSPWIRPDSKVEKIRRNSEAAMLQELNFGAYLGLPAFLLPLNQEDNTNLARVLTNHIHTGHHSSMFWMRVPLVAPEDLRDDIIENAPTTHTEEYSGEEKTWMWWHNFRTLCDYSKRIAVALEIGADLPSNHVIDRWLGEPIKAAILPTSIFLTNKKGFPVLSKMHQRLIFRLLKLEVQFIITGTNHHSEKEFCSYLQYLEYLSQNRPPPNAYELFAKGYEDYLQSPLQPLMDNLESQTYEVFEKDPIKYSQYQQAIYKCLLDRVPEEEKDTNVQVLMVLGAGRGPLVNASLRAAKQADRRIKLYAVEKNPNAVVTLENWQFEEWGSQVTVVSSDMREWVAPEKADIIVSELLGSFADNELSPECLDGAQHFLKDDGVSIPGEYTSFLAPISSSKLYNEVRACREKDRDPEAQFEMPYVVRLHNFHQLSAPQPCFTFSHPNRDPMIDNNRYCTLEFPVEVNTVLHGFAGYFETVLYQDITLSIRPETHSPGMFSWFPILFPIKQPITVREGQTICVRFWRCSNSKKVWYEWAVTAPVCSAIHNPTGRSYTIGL
Sequence of Protein arginine N-methyltransferase 1 (Q99873 whole entry): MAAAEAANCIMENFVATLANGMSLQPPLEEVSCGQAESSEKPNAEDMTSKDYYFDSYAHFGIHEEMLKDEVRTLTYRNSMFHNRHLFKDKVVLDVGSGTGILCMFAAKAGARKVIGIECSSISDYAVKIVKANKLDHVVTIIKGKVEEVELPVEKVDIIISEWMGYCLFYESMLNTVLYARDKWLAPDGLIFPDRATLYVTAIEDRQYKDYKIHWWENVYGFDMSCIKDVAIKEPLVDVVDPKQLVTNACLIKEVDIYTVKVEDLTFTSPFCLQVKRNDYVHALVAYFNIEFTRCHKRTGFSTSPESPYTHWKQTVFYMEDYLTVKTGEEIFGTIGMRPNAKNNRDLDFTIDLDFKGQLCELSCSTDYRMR

COc1ccc2c(ccn2C[C@H](O)CN2CCc3ccccc3C2)c1
Cmax [1]: 182 ng/mL | half-life [2]: 6.7 h | clearance [3]: 26.7 mL/min/kg | IC50 [4]: 27.7 µM | IC50 [5]: > 20 µM | IC50 [6]: 0.31 µM | Cmax [7]: 160 ng/mL | Activity [8]: Active | half-life [9]: 4.1 h | IC50 [10]: > 20 µM | half-life [11]: 0.342 h | half-life [12]: 2.21 h | Activity [13]: 68% | Activity [14]: Dose-Dependent Effect | IC50 [15]: 19.1 µM | Activity [16]: Active | Vd [17]: 9.3 L/kg | Activity [18]: Active | Tmax [19]: 2.7 h | AUC(0-inf) [20]: 2180 ng·h/mL | Activity [21]: inactive | IC50 at 24 h [22]: > 100 µM | AUC(0-inf) [23]: 1280 ng·h/mL | IC50 [24]: 20.5 µM | AUC(0-t) at 24 h [25]: 1970 ng·h/mL | F [26]: 100% | AUC(0-t) at 24 h [27]: 1250 ng·h/mL | Activity [28]: Dose-Dependent Effect | IC50 [29]: 23.6 µM | bioavailability [30]: 31.4% | Activity [31]: Active
